The nature of assay [1]: Demetallation of model mixture (DAO + NiETIO + OEPVO): catalysed oxidation, metal removal, residual nickel by X-ray fluorescence. The following applies: by mass. An excerpt: (§1) Le procédé de démétallation selon l'invention a été testé sur un mélange modèle de fractions pétrolières lourdes, composé d'un produit pétrolier ne contenant pas de nickel ni de vanadium, auxquelles ont été ajoutées des porphyrines modèles de nickel et de vanadium (exemples 1 à 4, 6 et 7).
(§2) La fraction pétrolière utilisée dans les exemples (DAO) est une huile désasphaltée au solvant, issue d'un résidu sous vide du brut Safaniya d'Arabie Saoudite. Il s'agit donc d'un résidu sous vide dépourvu d'asphaltènes, et donc de pétroporphyrines, pauvre en nickel (<0,2 ppm) et en vanadium (<0,1 ppm).
(§3) Les porphyrines modèles utilisées sont l'étioporphyrine de nickel (NiETIO) et l'octaéthylporphyrine de vanadyle (OEPVO), qui sont disponibles commercialement. Leurs formules sont les suivantes : [drawing 5] […]
(§4) Les différentes fractions sont ensuite évaporées afin de recueillir la fraction pétrolière de 2,02 g (soit un bilan matière de 97 %) qui est ensuite analysée par spectrométrie à fluorescence X pour en déceler 31 ppm de nickel et 54 ppm de Vanadium. […]
(§5) Les différentes fractions sont ensuite évaporées afin de recueillir la fraction pétrolière avec un bilan matière de 97% (en masse) et des teneurs en Nickel et Vanadium analysées par spectrométrie à fluorescence X de moins de 10 ppm (en masse). […]

The nature of assay [2]: Demetallation of model mixture (DAO + NiETIO + OEPVO): catalysed oxidation, metal removal, residual vanadium by X-ray fluorescence. As to conditions: by mass.
Excerpt: as §1, §2, §3, §4, §5

Structures are written as SMILES.

`Clc1cccc(Cl)c1-c1c2nc(c(-c3c(Cl)cccc3Cl)c3ccc([n-]3)c(-c3c(Cl)cccc3Cl)c3nc(c(-c4c(Cl)cccc4Cl)c4ccc1[n-]4)C=C3)C=C2.[Mn+2]` [Exemple 4, méso-tétra-(2,6-dichloro) phényl porphyrinede manganèse]: the “Après traitement Ni Taux d'élimination” value in assay [1] is recorded as 93,8%. Moreover, in assay [2], the “Après traitement V Taux d'élimination” value is recorded as 96,1%.
